Columns and labels:
Assay in all cases: relative viability (nuclei count vs DMSO), 5 days (fraction); higher = more cells survive
[1] = compound: C1COCCN1C2=NC(=NC3=C2OC4=C3C=CC=N4)C5=CC(=CC=C5)NC(=O)C6=CN=C(C=C6)N + CS(=O)(=O)CCNCc1ccc(-c2ccc3ncnc(Nc4ccc(OCc5cccc(F)c5)c(Cl)c4)c3c2)o1 [Lapatinib] (partner 2 µM)
How it was run: (§1)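 Five library-drug doses in √10 steps were combined with a fixed anchor-drug dose, or a single drug was given alone, by pin tool to lung cancer cell lines in 1536-well plates the day after seeding. Nuclei were stained and counted after 5 days. Relative viability is the nuclei count in treated wells over that in vehicle wells, taken as the median of duplicate plates.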

[2] = compound: Nc1ccccc1NC(=O)c1ccc(CNC(=O)OCc2cccnc2)cc1 [Entinostat] + COc1cccc2cc(-c3nc([C@H]4CC[C@H](C(=O)O)CC4)n4ncnc(N)c34)[nH]c12 [OSI-027] (partner 0.5 µM)
How it was run: as §1

[3] = compound: CN1CCC(CNc2ccc3ncc(-c4cccc(OC(F)(F)F)c4)n3n2)CC1 [SGI-1776] + CC1(C)CCC(c2ccc(Cl)cc2)=C(CN2CCN(c3ccc(C(=O)NS(=O)(=O)c4ccc(N[C@H](CCN5CCOCC5)CSc5ccccc5)c(S(=O)(=O)C(F)(F)F)c4)cc3)CC2)C1 [Navitoclax] (partner 0.5 µM)
How it was run: as §1

[4] = compound: C1COCCN1C2=NC(=NC3=C2OC4=C3C=CC=N4)C5=CC(=CC=C5)NC(=O)C6=CN=C(C=C6)N + CCNC(=O)c1noc(-c2cc(C(C)C)c(O)cc2O)c1-c1ccc(CN2CCOCC2)cc1 [Luminespib] (partner 0.01 µM)
How it was run: as §1

Row | Cell Line | relative viability ([1]; first compound 0.02 µM) | relative viability ([1]; first compound 0.06325 µM) | relative viability ([1]; first compound 0.2 µM) | relative viability ([1]; first compound 0.6325 µM) | relative viability ([1]; first compound 2 µM) | relative viability ([2]; first compound 0.02 µM) | relative viability ([2]; first compound 0.06325 µM) | relative viability ([2]; first compound 0.2 µM) | relative viability ([2]; first compound 0.6325 µM) | relative viability ([2]; first compound 2 µM) | relative viability ([3]; first compound 0.08 µM) | relative viability ([3]; first compound 0.8 µM) | relative viability ([3]; first compound 2.53 µM) | relative viability ([3]; first compound 8 µM) | relative viability ([4]; first compound 0.02 µM) | relative viability ([4]; first compound 0.06325 µM) | relative viability ([4]; first compound 0.2 µM) | relative viability ([4]; first compound 0.6325 µM) | relative viability ([4]; first compound 2 µM)
1 | NCI-H838 | 0.725 | 1.06 | 0.895 | 0.705 | 0.53 | 0.46 | 0.489 | 0.474 | 0.487 | 0.318 | 1.12 | 1.22 | 1.14 | 0.869 | 0.338 | 0.279 | 0.264 | 0.303 | 0.227
2 | HARA | 0.749 | 0.699 | 0.803 | 0.707 | 0.502 | 0.448 | 0.529 | 0.551 | 0.299 | 0.194 | 1.15 | 1.17 | 1.16 | 1.16 | 0.562 | 0.762 | 0.843 | 0.79 | 0.335
3 | NCI-H23 | 1.43 | 1.15 | 1.18 | 0.988 | 0.719 | 0.711 | 0.774 | 0.648 | 0.463 | 0.287 | 0.988 | 0.728 | 0.837 | 0.729 | 0.185 | 0.203 | 0.191 | 0.208 | 0.212
4 | LOU-NH91 | 0.764 | 0.826 | 0.725 | 0.769 | 0.715 | 0.719 | 0.761 | 0.708 | 0.652 | 0.585 | 0.747 | 0.744 | 0.698 | 0.445 | 0.309 | 0.389 | 0.346 | 0.315 | 0.306
5 | LCLC-103H | – | – | – | – | – | 0.473 | 0.555 | 0.504 | 0.393 | 0.279 | – | – | – | – | 0.99 | 1.04 | 0.89 | 1.1 | 0.461
6 | SW 1573 | 1.2 | 1.13 | 0.932 | 1.1 | 0.896 | 0.639 | 0.832 | 0.617 | 0.598 | 0.54 | 1.1 | 0.862 | 1.15 | 0.719 | 0.152 | 0.232 | 0.118 | 0.176 | 0.3
7 | EKVX | 0.189 | 0.181 | 0.221 | 0.215 | 0.207 | 0.751 | 0.738 | 0.805 | 0.511 | 0.318 | 1.03 | 0.907 | 0.999 | 0.888 | 0.885 | 0.859 | 0.723 | 0.755 | 0.664
8 | IA-LM | 0.848 | 0.67 | 0.621 | 0.588 | 0.276 | – | – | – | – | – | 0.951 | 0.754 | 0.941 | 0.905 | – | – | – | – | –
9 | HCC-827 | 0.172 | 0.214 | 0.254 | 0.186 | 0.21 | 0.713 | 0.749 | 0.688 | 0.402 | 0.292 | 1.05 | 1.01 | 1.08 | 0.99 | 0.634 | 0.557 | 0.65 | 0.586 | 0.456
10 | NCI-H661 | 0.53 | 0.554 | 0.525 | 0.351 | 0.406 | 0.688 | 0.757 | 0.724 | 0.54 | 0.629 | – | – | – | – | 0.894 | 0.961 | 0.962 | 0.958 | 0.52
11 | CAL-12T | 0.663 | 0.701 | 0.632 | 0.604 | 0.472 | 0.583 | 0.719 | 0.698 | 0.601 | 0.305 | 1.3 | 1.1 | 1.29 | 1.09 | 0.465 | 0.602 | 0.21 | 0.418 | 0.267
12 | NCI-H2342 | – | – | – | – | – | 0.651 | 0.587 | 0.629 | 0.598 | 0.524 | – | – | – | – | 0.746 | 0.768 | 0.719 | 0.665 | 0.596
13 | SW 900 | – | – | – | – | – | 0.696 | 0.659 | 0.647 | 0.319 | 0.397 | – | – | – | – | 0.203 | 0.166 | 0.172 | 0.152 | 0.174
14 | LC-2-ad | 0.948 | 0.939 | 0.968 | 1.03 | 0.537 | 0.768 | 0.842 | 0.578 | 0.349 | 0.27 | 0.463 | 0.434 | 0.464 | 0.257 | 0.857 | 1.08 | 1.02 | 1.06 | 0.872
15 | EPLC-272H | 0.886 | 1.02 | 0.674 | 0.825 | 0.53 | 0.285 | 0.359 | 0.314 | 0.245 | 0.214 | 1.15 | 1.15 | 1.25 | 0.969 | 0.242 | 0.588 | 0.401 | 0.271 | 0.33
16 | A-427 | 1.06 | 1.04 | 0.91 | 1.1 | 0.677 | 0.505 | 0.489 | 0.403 | 0.395 | 0.343 | 1.03 | 0.957 | 0.953 | 1.03 | 0.812 | 0.951 | 0.982 | 0.872 | 0.544
17 | NCI-H650 | 0.913 | 0.915 | 0.891 | 1.02 | 0.517 | 0.614 | 0.614 | 0.586 | 0.489 | 0.261 | – | – | – | – | 0.873 | 0.756 | 0.788 | 0.783 | 0.698
18 | NCI-H1993 | 0.787 | 0.822 | 0.841 | 0.826 | 0.814 | 0.484 | 0.586 | 0.53 | 0.552 | 0.653 | 0.95 | 0.945 | 0.832 | 0.56 | 0.906 | 0.776 | 0.707 | 0.802 | 0.689
19 | NCI-H358 | 0.438 | 0.45 | 0.34 | 0.387 | 0.355 | 0.879 | 0.992 | 0.796 | 0.496 | 0.169 | – | – | – | – | 0.287 | 0.254 | 0.353 | 0.426 | 0.193

From the supplement of paper PMC10307832
